Assay [1] deals with T1, CBX7 ChD (Homo sapiens, UniProt O95931).
T1 construct: CBX chromodomain constructs; host or cells: E. coli BL21 CodonPlus RIL
T1 sequence (O95931 11-69 limits assumed): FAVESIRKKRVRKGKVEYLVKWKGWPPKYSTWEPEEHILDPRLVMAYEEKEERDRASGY
Description: Direct fluorescence polarization (FP) binding assay. As to the method:
CBX chromodomain constructs (addgene plasmid #25158 (CBX2), #25237 (CBX4), #25296 (CBX6), #25241 (CBX7) and #62514 (CBX8, provided by Cheryl Arrowsmith), Kaustov et al.) were transformed into chemically competent BL21 CodonPlus RIL E. coli cells (Stratagene, La Jolla, Calif.) as N-terminal His6-tagged proteins. Bacterial growth was completed at 37° C. in LB media to OD600=2.0, followed by reducing the temperature to 16° C. over 30-60 min and induced with 1 mM IPTG for 16 h. Cells were collected by centrifugation at 6000 rpm for 20 min and resuspended in ChD binding buffer (20 mM Tris, pH 8, 150 mM NaCl, 0.01% Tween-20, 20 mM imidazole) with 1.0 mM PMSF. Bacteria pellets were stored at −80° C. until needed. Pellets were thawed on ice for 10 min in ChD binding buffer, and shaked at 4° C. supplemented with 100 μg/mL lysozyme, 1 mg/mL CHAPS and 1 mM PMSF, for 30 min. Cells were subsequently lysed by sonication (15 W, 30 s on, followed by 30 s off, twice, followed by 20 W for 1 min). The solubilized fraction was collected by centrifugation at 15000 rpm for 40 min at 4° C. Meanwhile, Ni-NTA Agarose resin (QIAGEN, Venlo, Netherlands) was washed with H2O and equilibrated with ChD binding buffer. […] Protein purity was assessed by SDS-PAGE and concentration was determined by the Pierce 660 kit (Thermo Scientific).
Direct fluorescence polarization (FP) binding assay of PSL hits against PcG CBX ChDs. […]
(In general: In fluorescence polarisation assays a small probe gives low polarisation when free and higher when bound to something large.)

Assay [2] addresses T2, CBX2 ChD (Homo sapiens, UniProt Q14781).
T2 construct: CBX chromodomain constructs; host or cells: E. coli BL21 CodonPlus RIL
T2 sequence (Q14781 12-70 limits assumed): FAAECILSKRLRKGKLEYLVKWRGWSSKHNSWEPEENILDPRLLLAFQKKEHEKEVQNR
The description is as above. How it is done:
Bacterial growth was completed at 37° C. in LB media to OD600=2.0, followed by reducing the temperature to 16° C. over 30-60 min and induced with 1 mM IPTG for 16 h. Cells were collected by centrifugation at 6000 rpm for 20 min and resuspended in ChD binding buffer (20 mM Tris, pH 8, 150 mM NaCl, 0.01% Tween-20, 20 mM imidazole) with 1.0 mM PMSF. Bacteria pellets were stored at −80° C. until needed. Pellets were thawed on ice for 10 min in ChD binding buffer, and shaked at 4° C. supplemented with 100 μg/mL lysozyme, 1 mg/mL CHAPS and 1 mM PMSF, for 30 min. Cells were subsequently lysed by sonication (15 W, 30 s on, followed by 30 s off, twice, followed by 20 W for 1 min). The solubilized fraction was collected by centrifugation at 15000 rpm for 40 min at 4° C. Meanwhile, Ni-NTA Agarose resin (QIAGEN, Venlo, Netherlands) was washed with H2O and equilibrated with ChD binding buffer. The soluble fraction was incubated with the prewashed Ni-NTA agarose resin at 4° C. for 2 h. The resin was then washed 3× with ChD purification buffer (20 mM Tris, pH 8, 150 mM NaCl, 0.01% Tween-20, 1 mM PMSF). Proteins were eluted by the addition of 0.5 M imidazole to ChD purification buffer. The elution was diluted with 30% glycerol, flash frozen, and stored at −80° C. until needed. Protein purity was assessed by SDS-PAGE and concentration was determined by the Pierce 660 kit (Thermo Scientific).
Direct fluorescence polarization (FP) binding assay of PSL hits against PcG CBX ChDs. FP assays were conducted as above with slight modifications. Alkyne peptides described above were conjugated with a fluorescein group(5-/6-FAM) through copper catalyzed click reaction as previously described. The FAM-labeled peptide was kept constant at 100 nM. The CBX ChD proteins were titrated by 2-fold series dilutions in the assays. The highest protein concentrations, at which FAM-peptide was completely bound, used for each CBX in the direct binding assays depends on the binding affinity of the peptides. Assays were performed for each peptide in four replicates.

Each structure is given as a SMILES string. Square brackets hold non-standard residues; d marks the D form. Peptide text beside a SMILES is read from it. * marks the point of attachment. X2 = O=C(NCCCCn1cc(CN*)nn1)c1ccc2c(c1)C1(OC2=O)c2ccc(O)cc2Oc2cc(O)ccc21; Isoxazole3carbonyl(5-iPr) = CC(C)c1cc(C(=O)*)no1; Tyr(3-Cl) = N[C@@H](Cc1ccc(O)c(Cl)c1)C(=O)O; Gly(3-thienyl) = N[C@H](C(=O)O)c1ccsc1; Lys(Et2) = CCN(CC)CCCC[C@H](N)C(=O)O

The term Kd denotes the concentration at which binding is half-saturated. Higher therefore signals lower affinity.

As to `CC[C@H](C)[C@H](NC(=O)[C@@H](NC(=O)[C@H](Cc1ccc(O)c(Cl)c1)NC(=O)c1cc(C(C)C)on1)c1ccsc1)C(=O)N[C@@H](CCCCN(CC)CC)C(=O)N[C@@H](CO)C(=O)NCc1cn(CCCCNC(=O)c2ccc3c(c2)C2(OC3=O)c3ccc(O)cc3Oc3cc(O)ccc32)nn1` [SW2_104A-FL] ({Isoxazole3carbonyl(5-iPr)}-[Tyr(3-Cl)][Gly(3-thienyl)]I[Lys(Et2)]S-X2), the figures for the Kd in assay [1] and in assay [2] were 840 ± 380 nM and 51 ± 36 nM, respectively.

These data come from US20210284691A1, “CBX8 CHROMDOMAIN INHIBITORS AND THE USES THEREOF” (Purdue Research Foundation, priority 2019, published 2021).
